Results as given in paper PMC8661032, “Broad-Spectrum Antibacterial Peptide Kills Extracellular and Intracellular Bacteria Without Affecting Epithelialization” (Frontiers in Microbiology, 2021).
≈ marks a conversion by molar mass, not a printed value. Read-outs that look alike come from different tables or passages of the source. Residues, ends and D or L forms follow the SMILES beside them.

Tests used:
E. coli [1] = test: microbe, parasite or virus in culture; conditions: for MIC: Escherichia coli
Method: (§1) Briefly, bacterial colonies from blood agar plates were suspended and grown in Cation-Adjusted Mueller-Hinton Broth (CAMHB, […] Ca^2+, […] Mg^2+). The bacterial suspension was adjusted to 0.5 McFarland standard (∼1 × 10^8 colony-forming units (CFU)/ml) and serial diluted 1:200 in CAMHB (∼5 × 10^5 CFU/mL). […] The suspension was plated out on blood agar plates to confirm the CFU/ml. Both the microtiter plates and the blood agar plates were incubated at 37°C for 24 h.

E. faecium = test: microbe, parasite or virus in culture; conditions: for MIC: Enterococcus faecium
Method: as §1

E. coli K-12 MG1655 = test: Resistance development assay (serial passage), E. coli; format: cell-based, Escherichia coli; conditions: serial passage at sub-MIC in CAMHB, 32 days
Source text: (§2) Bacteria (E. coli K-12 MG1655 and S. aureus ATCC 29213 and SO-SAU19-1) were serial passaged in CAMHB as described by [Silverman et al. (2001)] with some small modifications.

K. pneumoniae = test: microbe, parasite or virus in culture; conditions: for MIC: Klebsiella pneumoniae
Method: as §1

E. cloacae = test: microbe, parasite or virus in culture; conditions: Enterobacter cloacae, 24 h
Method: as §1

P. aeruginosa = test: microbe, parasite or virus in culture; conditions: for MIC: Pseudomonas aeruginosa
Method: as §1

S. aureus = test: microbe, parasite or virus in culture; conditions: Staphylococcus aureus
Method: as §1

A. baumannii = test: microbe, parasite or virus in culture; conditions: for MIC: Acinetobacter baumannii
Method: as §1

[2] = system: S. aureus ATCC 29213 and SO-SAU19-1; format: cell-based, Staphylococcus aureus
Source text: as §2

E. faecalis = test: microbe, parasite or virus in culture; conditions: for MIC: Enterococcus faecalis
Method: as §1

E. coli [3] = test: Growth inhibition assay (OD600 over 24 h); format: cell-based, Escherichia coli; design: Reduction of viability E. coli (60 μg/ml): key to the marks not given beside the values; conditions: 60 μg/ml peptide, LB medium, OD600 every hour over 24 h, relative to untreated control
Method: An overnight culture of Escherichia coli was diluted 1:100 in Luria-Bertani (LB) medium and allowed to grow until an optical density (OD) at 600 nm (OD600) of 0.06–0.1. APIM-peptides were prepared by serial dilution in Milli-Q H2O and kept at 4°C. Fresh LB medium (60 μl) was added to a flat-bottom microtiter plate. The bacterial suspension was diluted 1:100 in LB, and 75 μl of this suspension was added to the wells. Finally, 15 μl of APIM-peptide solution (to final concentrations 60, 120, and 240 μg/ml) or distilled water (positive control) was added to the wells, reaching a total volume of 150 μl per well. Data are presented only for the dose that separated the effect of the different peptides, i.e., 60 μg/ml. A blank sterile medium was used as negative control. The plates were incubated with shaking at 510 rpm at 37°C inside a plate reader (TECAN, Spark®), and OD was read every hour over a period of 24 h.
The MIC for E. coli in LB medium is higher than that in CAMHB; thus, concentrations higher than the MIC given in Table 2 are used in the growth inhibition and mutagenesis assays. […]
E. coli. Growth of E. coli in LB medium over 24 hours (Optical Density (OD) 600 nm) after addition
of APIM-peptide variants 1-5 (60 µg/mL) at time t=0 (see Table 2). Negative (-) control is no
bacteria added, positive (+) control is untreated bacteria.
highest inhibition of growth.
control (black filled line).

E. coli [4] = test: Rifampicin (RifR) mutagenesis assay after UV-C; format: cell-based, Escherichia coli
Method: The rifampicin (Rif^R) mutagenesis assay was performed as described ([Nedal et al., 2020]). Briefly, an overnight culture of E. coli was diluted 1:1,000 and grown until an OD600 of 0.01. APIM-peptides (20 μg/ml) were added to LB media with glass beads (for uniform distribution of APIM-peptides) and incubated for 30 min at 37°C. The pellets were next collected, resuspended in 500 μl PBS, and exposed to UV-C (20 mJ/cm^2) in a six-well plate at 4°C. The unexposed bacteria (-UV) were otherwise handled exactly like the UV-exposed bacteria. Next, the cells were resuspended in LB media and incubated in a rotary shaker at 37°C at 250 rpm for 2 h before being harvested, diluted, and plated on LB with soft agar with and without rifampicin (100 μg/ml). Mutation frequency, Rif^R/10^8, is obtained as follows: (number of colonies on the rifampicin plate (Rif^R)/(number of colonies on LB plates without antibiotics), per milliliter of bacterial suspension. […]
mutagenesis in E. coli more efficiently than the other peptide variants.
Increase in mutation frequencies after treatment with UV-C (20 mJ/cm2) relative to spontaneous mutations frequencies using the RifR assay were determined. This increase is set to 100% for untreated control, and % reduction after addition of peptides 1-5 (20 μg/mL) are shown. Mean ± SD from three independent experiments. * p<0.05, ** p<0.005

[5] = system: S. epidermidis MRSE (SO-SEP9-1); conditions: SO-SEP9-1, 24 h
Method: as §1

HEK293 cells = system: HEK293 cells
Method: HEK293 cells (6,000 cells/well) were seeded in 96-well microtiter plates. After 4 h, APIM-peptides (12–48 μg/ml) were added, and the cells were incubated without change of media for up to 4 days. Viability was measured using the 3-(4,5-dimethylthiazol-2-yl)-2,5-diphenyltetrazolium bromide (MTT) assay as described ([Gilljam et al., 2009]).
(1 picture or pasted object on this page, not shown here)

[6] = SO-PAE19-1 (multidrug resistant)

CC1(C)S[C@@H]2[C@H](NC(=O)[C@H](N)c3ccccc3)C(=O)N2[C@H]1C(=O)O [Ampicillin, ampicillin]
MIC (E. coli [1]; MG1655, read-out: MIC in E. coli): 16 µg/mL (≈ 45.8 µM) | Combination effect with 0.5× MIC betatide (E. faecium; CCUG 59167 (vanA+), reduced MIC of antibiotic when combined with 0.5× MIC betatide): None | MIC (E. faecium; 24 h): 2050 µg/mL (≈ 5860 µM) | MIC (E. faecium; CCUG59167, 24 h): 1 µg/mL (≈ 2.86 µM) | Combination effect with 0.5× MIC betatide (E. faecium; SO-EFU19-1 (vanB+)): None | increase in MIC relative to day 1 (E. coli K-12 MG1655): ≤ 64 ×

CO/N=C(\C(=O)N[C@@H]1C(=O)N2C(C(=O)O)=C(COC(C)=O)CS[C@H]12)c1csc(N)n1 [Cefotaxime, cefotaxime]
Combination effect with 0.5× MIC betatide (K. pneumoniae; ATCC 13883): Additive 2× | MIC (K. pneumoniae; 24 h): 2050 µg/mL (≈ 4500 µM) | MIC (K. pneumoniae; ATCC13883, 24 h): 0.13 µg/mL (≈ 0.285 µM) | Combination effect with 0.5× MIC betatide (K. pneumoniae; SO-KPN19-1 (ESBL-CARBA-D)): None | MIC (E. cloacae): > 1020 µg/mL

CC(C)(O/N=C(\C(=O)N[C@@H]1C(=O)N2C(C(=O)[O-])=C(C[n+]3ccccc3)CS[C@H]12)c1csc(N)n1)C(=O)O [Ceftazidime, ceftazidime]
Combination effect with 0.5× MIC betatide (P. aeruginosa; ATCC 27853): None | MIC (P. aeruginosa; 24 h): 128 µg/mL (≈ 234 µM) | MIC (P. aeruginosa; ATCC27853, 24 h): 2 µg/mL (≈ 3.66 µM) | Combination effect with 0.5× MIC betatide (P. aeruginosa; [6]): None | MIC (E. cloacae): > 1000 µg/mL

CNC(C)C1CCC(N)C(OC2C(N)CC(N)C(OC3OCC(C)(O)C(NC)C3O)C2O)O1 (stereo not drawn) [Gentamicin, gentamicin]
MIC (S. aureus; ATCC29213, read-out: MIC in S. aureus ATCC 29213, ATCC 29213, values given in method text): 1 µg/mL (≈ 2.09 µM) | MIC (S. aureus; ATCC29213, read-out: MIC in S. aureus, starting MIC of resistance development assay, CAMHB, strain not differentiated (ATCC 29213 and SO-SAU19-1)): 1 µg/mL | Combination effect with 0.5× MIC betatide (K. pneumoniae; ATCC 13883): Additive 4× | MIC (K. pneumoniae; 24 h): 64 µg/mL (≈ 134 µM) | MIC (K. pneumoniae; ATCC13883, 24 h): 0.5 µg/mL (≈ 1.05 µM) | Combination effect with 0.5× MIC betatide (K. pneumoniae; SO-KPN19-1 (ESBL-CARBA-D)): Additive 4× | MIC (E. coli [1]; 24 h): > 500 µg/mL | MIC (E. coli [1]; MG1655, 24 h): 0.5 µg/mL (≈ 1.05 µM) | Combination effect with 0.5× MIC betatide (E. coli [1]; MG1655): None | Combination effect with 0.5× MIC betatide (A. baumannii; ATCC 19606): None | MIC (A. baumannii; 24 h): > 1000 µg/mL | MIC (A. baumannii; ATCC19606, 24 h): 8 µg/mL (≈ 16.8 µM) | Combination effect with 0.5× MIC betatide (P. aeruginosa; ATCC 27853): None | MIC (P. aeruginosa; 24 h): 16 µg/mL (≈ 33.5 µM) | MIC (P. aeruginosa; ATCC27853, 24 h): 2 µg/mL (≈ 4.19 µM) | Combination effect with 0.5× MIC betatide (P. aeruginosa; [6]): None | MIC (E. cloacae): > 1000 µg/mL | increase in MIC relative to day 1 ([2]; S. aureus ATCC 29213, serial passage, first experiment (parallel 1)): ≤ 256 × | increase in MIC relative to day 1 ([2]; S. aureus SO-SAU19-1 (MRSA), 20 passages): 8 ×

CC(=O)NC[C@H]1CN(c2ccc(N3CCOCC3)c(F)c2)C(=O)O1 [Linezolid, linezolid]
Combination effect with 0.5× MIC betatide (E. faecalis; ATCC 29212): None | MIC (E. faecalis; 24 h): 8 µg/mL (≈ 23.7 µM) | MIC (E. faecalis; ATCC29212, 24 h): 2 µg/mL (≈ 5.93 µM) | Combination effect with 0.5× MIC betatide (E. faecalis; SO-EFA19-1 (optrA+)): None

CC[C@H](C)[C@H](NC(=O)CNC(=O)[C@H](CCCCN)NC(=O)[C@@H](NC(=O)[C@H](CC(C)C)NC(=O)[C@H](Cc1c[nH]c2ccccc12)NC(=O)[C@H](CCCNC(=N)N)NC(=O)[C@H](CC(=O)O)NC(=O)[C@H](CCSC)NC(C)=O)C(C)C)C(=O)N[C@@H](CC(C)C)C(=O)N[C@@H](CCC(N)=O)C(=O)N[C@@H](Cc1c[nH]c2ccccc12)C(=O)N[C@@H](CCCNC(=N)N)C(=O)N[C@@H](CCCCN)C(=O)N[C@H](C(=O)N[C@@H](CCCNC(=N)N)C(=O)N[C@@H](CCCNC(=N)N)C(=O)N[C@@H](CCCNC(=N)N)C(=O)N[C@@H](CCCNC(=N)N)C(=O)N[C@@H](CCCNC(=N)N)C(=O)N[C@@H](CCCNC(=N)N)C(=O)N[C@@H](CCCNC(=N)N)C(=O)N[C@@H](CCCNC(=N)N)C(N)=O)[C@@H](C)CC [Peptide 5] (Ac-MDRWLVKGILQWRKIRRRRRRRR-NH2)
Reduction of viability E. coli (60 μg/ml) (E. coli [3]): ++ | UV-induced mutation frequencies relative to control (E. coli [4]; 20 μg/mL, UV-C 20 mJ/cm2, RifR assay, three independent experiments): significantly reduced | Reduction of mutation frequency E. coli (20 μg/ml) (E. coli [4]; 20 μg/ml peptide, UV-C 20 mJ/cm^2, RifR assay, relative to untreated control): ++ | MIC S. epidermidis MRSE [5]: 16 µg/mL (≈ 4.95 µM) | MIC E. coli (E. coli [1]; K-12 MG1655, CLSI broth microdilution, CAMHB, 37°C, 24 h, visible growth, net peptide concentration): 16 µg/mL (≈ 4.95 µM) | Reduction of viability HEK293 (24 μg/ml) (HEK293 cells): +
